Where a SMILES comes first, the peptide text is derived from it. [ ]: non-standard residue; d: D form. The star is where a group is joined. Myristoyl = CCCCCCCCCCCCCC(=O)*; 12Ado = NCCCCCCCCCCCC(=O)O
Assay: Self-assembly in solution by light scattering
Assay type: physicochemical
Conditions: for critical aggregation concentration: light scattering at 90°, 400 nm
Procedure: To assess the OAK’s self-assembly in solution, serial two-fold dilutions of the OAK (initial concentration of 200 µM) were prepared in phosphate buffered saline (PBS; 10 mM Na2HPO4, 154 mM NaCl, pH = 7.4) and incubated for 2 hr at room temperature (RT). Light scattering at a 90° angle was measured through a 1 nm slit while holding both excitation and emission at 400 nm (Spectrophotometer Fluorolog-3 FL3–22; Horiba Jobin Yvon, Edison, NJ, USA). To evaluate the disassembly of these aggregates upon bacterial exposure, an OAK solution (200 µM) was incubated (2 hr in PBS, at RT) after which, bacteria were added (10^5 CFU/ml) and the light scattering evolution of these suspensions was monitored as described above.

CCCCCCCCCCCCCC(=O)N[C@@H](CCCCN)C(=O)N[C@@H](CCCCN)C(=O)NCCCCCCCCCCCC(=O)N[C@@H](CCCCN)C(N)=O [C14KKc12K] (Myristoyl-KK[12Ado]K-NH2)
disaggregation in presence of bacteria (light scattering) (OAK 200 µM in PBS, 2 hr RT, then 10^5 CFU/ml S. aureus or E. coli, compared with C12KKc12K): greater tendency to disaggregate in presence of bacteria
critical aggregation concentration (PBS pH 7.4, 2 hr at RT): 23 ± 3 µM
concentration of sharp divergence of light scattering pattern (higher amplitudes) (PBS pH 7.4, 2 hr at RT, two-fold dilutions from 200 µM): ~ 20 µM
critical aggregation concentration (supernatant of centrifuged saliva): 8 ± 1 µM

From publication PMC5438364, “A broad-spectrum bactericidal lipopeptide with anti-biofilm properties” (Scientific Reports, 2017)
